From US20050208496A1, “Methods of testing for bronchial asthma or chronic obstructive pulmonary disease” (Genox Research, Inc., priority 2002, published 2005)

Test system: respiratory epithelial cells

IL-13: human IL-13 (Peprotech, Inc.) added to the medium at 50 ng/mL to stimulate respiratory epithelial cells
HLA-F (37421_f_at) expression, fold change upon IL-13 stimulation (lot 1, Day 7, IMM method): 2.1 fold
HLA-F (49203_f_at) expression fold change (lot 1, Day 7, IMM method): 2.1 fold
HS3ST1 (41556_s_at) expression fold change upon IL-13 stimulation (lot 1, Day 7, IMM method): 3.7 fold
HUMRTVLH3 (34702_f_at) expression, fold change upon IL-13 stimulation (lot 1, Day 7, IMM method): 7 fold
IFI27 (425_at) expression, fold change upon IL-13 stimulation (lot 1, Day 7, IMM method): 2.8 fold
IFI35 (464_s_at) expression, fold change upon IL-13 stimulation (lot 1, Day 7, IMM method): 4.6 fold
IFI44 (37641_at) expression, fold change upon IL-13 stimulation (lot 1, Day 7, IMM method): 2.3 fold
IFIT1 (915_at) expression, fold change upon IL-13 stimulation (lot 1, Day 7, IMM method): 2.1 fold
IFIT4 (38584_at) expression, fold change upon IL-13 stimulation (lot 1, Day 7, IMM method): 3.4 fold
IFITM1 (675_at) expression, fold change upon IL-13 stimulation (lot 1, Day 7, IMM method): 8.1 fold
IL13RA2 (1016_s_at) expression fold change upon IL-13 stimulation (lot 1, Day 7, IMM method): 5.3 fold
IL19 (47855_at) expression fold change (lot 1, Day 7, IMM method): 2.6 fold
ISG15 (1107_s_at) expression, fold change upon IL-13 stimulation (lot 1, Day 7, IMM method): 3.8 fold
ISG15 (38432_at) expression, fold change upon IL-13 stimulation (lot 1, Day 7, IMM method): 5 fold
ISG20 (33304_at) expression, fold change upon IL-13 stimulation (lot 1, Day 7, IMM method): 4.2 fold
KIAA0469 (37230_at) expression, fold change upon IL-13 stimulation (lot 1, Day 7, IMM method): 2.4 fold
KIAA0537 (33787_at) expression, fold change upon IL-13 stimulation (lot 1, Day 7, IMM method): 3.3 fold
KIAA1199 (36070_at) expression, fold change upon IL-13 stimulation (lot 1, Day 7, IMM method): 2.3 fold
KIAA1268 (57050_at) expression fold change (lot 1, Day 7, IMM method): 2.4 fold
KIAAI268 (59516_at) expression fold change (lot 1, Day 7, IMM method): 4 fold
KRT16 (601_s_at) expression fold change (lot 1, Day 7, IMM method): 3.5 fold
LOC57118 (51085_at) expression fold change (lot 1, Day 7, IMM method): 5 fold
MAT2A (32571_at) expression fold change upon IL-13 stimulation (lot 1, Day 7, IMM method): 2.4 fold
MDA5 (51920_at) expression fold change (lot 1, Day 7, IMM method): 2.8 fold
MFHAS1 (50388_at) expression fold change (lot 1, Day 7, IMM method): 2.6 fold
MMP7 (668_s_at) expression, fold change upon IL-13 stimulation (lot 1, Day 7, IMM method): 2.8 fold
MX2 (879_at) expression fold change (lot 1, Day 7, IMM method): 2.4 fold
MXI (37014_at) expression fold change (lot 1, Day 7, IMM method): 11.2 fold
NK4 (39119_s_at) expression fold change upon IL-13 stimulation (lot 1, Day 7, IMM method): 2.5 fold
NOS2A (1948_f_at) expression fold change upon IL-13 stimulation (lot 1, Day 7, IMM method): 2.8 fold
NOS2A (48918_at) expression fold change (lot 1, Day 7, IMM method): 2.5 fold
NTRK1 (36805_s_at) expression, fold change upon IL-13 stimulation (lot 1, Day 7, IMM method): 6.5 fold
OAF (39695_at) expression, fold change upon IL-13 stimulation (lot 1, Day 7, IMM method): 5.1 fold
OAS1 (38388_at) expression fold change upon IL-13 stimulation (lot 1, Day 7, IMM method): 3.3 fold
OAS1 (38389_at) expression fold change upon IL-13 stimulation (lot 1, Day 7, IMM method): 3.3 fold
OSF-2 (1451_s_at) expression fold change upon IL-13 stimulation (lot 1, Day 7, IMM method): 30.6 fold
PHKB (46459_at) expression fold change (lot 1, Day 7, IMM method): −2.7 fold
PITPNB (35017_f_at) expression, fold change upon IL-13 stimulation (lot 1, Day 7, IMM method): 2.1 fold
PLS1 (39951_at) expression fold change (lot 1, Day 7, IMM method): 7.9 fold
PSMB9 (38287_at) expression fold change upon IL-13 stimulation (lot 1, Day 7, IMM method): 3.1 fold
RASGRP1 (33291_at) expression fold change (lot 1, Day 7, IMM method): 3.3 fold
RIG-1 (59215_at) expression fold change (lot 1, Day 7, IMM method): 3.8 fold
SECTM1 (41045_at) expression, fold change upon IL-13 stimulation (lot 1, Day 7, IMM method): 14 fold
SERPINB2 (37185_at) expression fold change (lot 1, Day 7, IMM method): 3 fold
SERPINB4 (1549_s_at) expression fold change (lot 1, Day 7, IMM method): 23.9 fold
SIAT1 (41352_at) expression fold change upon IL-13 stimulation (lot 1, Day 7, IMM method): 21.6 fold
SLC26A4, pendrin (36376_at) expression fold change (lot 1, Day 7, IMM method): 28.5 fold
SSI-1 (41592_at) expression, fold change upon IL-13 stimulation (lot 1, Day 7, IMM method): 8.3 fold
STAT1 (33339_g_at) expression fold change (lot 1, Day 7, IMM method): 2.1 fold
TSPAN-3 (38612_at) expression, fold change upon IL-13 stimulation (lot 1, Day 7, IMM method): 3.2 fold
UFD1L (811_at) expression, fold change upon IL-13 stimulation (lot 1, Day 7, IMM method): 3.8 fold
WARS (38121_at) expression fold change upon IL-13 stimulation (lot 1, Day 7, IMM method): 6 fold
cig5 (38549_at) expression, fold change upon IL-13 stimulation (lot 1, Day 7, IMM method): 2.2 fold
diubiquitin (39959_at) expression, fold change upon IL-13 stimulation (lot 1, Day 7, IMM method): 9.7 fold
AA059458 (65626_at) expression change (lot 1 Day 3 AI): −2.3
AA151265 (60939_i_at) expression change (lot 1 Day 3 AI): −2.5
AA160156 (47578_at) expression change (lot 1 Day 3 AI): −2.4
AA422178 (53747_at) expression change (lot 1 Day 3 AI): −5.3
AA456099 (59567_at) expression change (lot 1 Day 3 AI): −2
AA772055 46104_at expression change (lot 1 Day 3 AI): −5.4
AF052107 38262_at expression change (lot 1 Day 3 AI): −2.5
AI050855 (64285_at) expression change (lot 1 Day 3 AI): −3.6
AI264299 (84903_f_at) expression change (lot 1 Day 3 AI): −3.1
AI432375 (49819_at) expression change (lot 1 Day 3 AI): −4.3
AI468340 (72604_at) expression change (lot 1 Day 3 AI): −2
AI760772 (58528_s_at) expression change (lot 1 Day 3 AI): −2.3
AI829641 (84270_at) expression change (lot 1 Day 3 AI): −5.1
AI917602 (49985_at) expression change (lot 1 Day 3 AI): −2.3
AI923984 33546_at expression change (lot 1 Day 3 AI): −3.2
AL040936 (45684_at) expression change (lot 1 Day 3 AI): −2.7
AQP5 32909_at expression change (lot 1 Day 3 AI): −6.3
ARHGEF4 36524_at expression change (lot 1 Day 3 AI): −3.5
ARHV (82231_at) expression change (lot 1 Day 3 AI): −2
AW025596 52637_g_at expression change (lot 1 Day 3 AI): −4.8
BARX2 35425_at expression change (lot 1 Day 3 AI): −3.1
BPGM (51261_at) expression change (lot 1 Day 3 AI): −4
CRABP-II 1057_at expression change (lot 1 Day 3 AI): −4.6
DKFZp434K1210 44682_at expression change (lot 1 Day 3 AI): −4.4
DREV1 (63813_at) expression change (lot 1 Day 3 AI): −2
DSC3a, b 47119_at expression change (lot 1 Day 3 AI): −2.4
EIF4EBP1 (54152_at) expression change (lot 1 Day 3 AI): −2.2
FLJ10298 (62490_f_at) expression change (lot 1 Day 3 AI): −3.7
FLJ20048 (49196_at) expression change (lot 1 Day 3 AI): −2.4
FLJ20373 54030_at expression change (lot 1 Day 3 AI): −2.1
GABRP 40339_at expression change (lot 1 Day 3 AI): −2.2
GJA1 32531_at expression change (lot 1 Day 3 AI): −4.4
GSTA3 58023 at expression change (lot 1 Day 3 AI): −4.6
HEY1 44783_s_at expression change (lot 1 Day 3 AI): −6.2
HIN-1 (46200_at) expression change (lot 1 Day 3 AI): −5.4
HSPC195 44705_at expression change (lot 1 Day 3 AI): −2.5
IVL 36355_at expression change (lot 1 Day 3 AI): −6.8
K1IAA1102 (64345_s_at) expression change (lot 1 Day 3 AI): −2.7
KLF7 34216_at expression change (lot 1 Day 3 AI): −2.5
KLF7 (42769_at) expression change (lot 1 Day 3 AI): −3.2
KRT6B (62998_at) expression change (lot 1 Day 3 AI): −3.4
KRT15 37582_at expression change (lot 1 Day 3 AI): −5.2
LOC51297 (49616_at) expression change (lot 1 Day 3 AI): −9.1
LOC51297 (55440_at) expression change (lot 1 Day 3 AI): −57.3
LOC51297 (55442_g_at) expression change (lot 1 Day 3 AI): −14
LOC51316 (63342_at) expression change (lot 1 Day 3 AI): −2
LOC129642 (58288_at) expression change (lot 1 Day 3 AI): −2.8
LOC131177 (43849_s_at) expression change (lot 1 Day 3 AI): −5.2
LOC131177 (45394_s_at) expression change (lot 1 Day 3 AI): −4.4
MGC13102 (54791_at) expression change (lot 1 Day 3 AI): −6.5
MGC14128 55924_at expression change (lot 1 Day 3 AI): −2.6
MGC14128 (51669_r_at) expression change (lot 1 Day 3 AI): −2.8
